Columns and labels:
[1] = Fraction absorbed in cynomolgus monkey at 1 mg/kg, po; format: ADME, organism-based, Macaca fascicularis; set-up: dose 1 mg/kg, route oral; conditions: in vivo, read-out: Fabs
[2] = Oral bioavailability in cynomolgus monkey at 1 mg/kg; format: ADME, organism-based, Macaca fascicularis; conditions: in vivo
physchem = conditions: buffer, pH 7.4
in vitro = conditions: human, Caco-2
Cynomolgus monkey [3] = test: AUC (0 to infinity) in cynomolgus monkey at 1 mg/kg, po; format: ADME, organism-based, Macaca fascicularis, Plasma; set-up: time infinity, dose 1 mg/kg, route oral; conditions: in vivo
Cynomolgus monkey [4] = test: AUC (0 to infinity) in cynomolgus monkey at 1 mg/kg, iv; format: ADME, organism-based, Macaca fascicularis, Plasma; set-up: time infinity, dose 1 mg/kg, route intravenous; conditions: in vivo
[5] = Tmax in cynomolgus monkey at 1 mg/kg, po; format: ADME, organism-based, Macaca fascicularis; set-up: dose 1 mg/kg, route oral; conditions: in vivo
[6] = Volume of distribution at steady state in cynomolgus monkey at 1 mg/kg, iv; format: ADME, organism-based, Macaca fascicularis; set-up: dose 1 mg/kg, route intravenous; conditions: in vivo, read-out: Vdss
[7] = Cmax in cynomolgus monkey at 1 mg/kg, po; format: ADME, organism-based, Macaca fascicularis; set-up: dose 1 mg/kg, route oral; conditions: in vivo

| Fa [1] | bioavailability [2] | solubility (physchem) | Papp A→B at 10 µM (in vitro) | AUC (Cynomolgus monkey [3]) | AUC (Cynomolgus monkey [4]) | Tmax [5] | Vd [6] | Cmax [7] | Compound |
| --- | --- | --- | --- | --- | --- | --- | --- | --- | --- |
| 7% | 4% |  |  |  |  |  |  |  | CC(C)(C)CCn1nc(C2=CCCC2)c(O)c(C2=NS(=O)(=O)c3cc(NS(C)(=O)=O)ccc3N2)c1=O |
| 6% | 4% | > 100 µM | 0.59 ×10⁻⁶ cm/s |  |  |  |  |  | CS(=O)(=O)Nc1ccc2c(c1)S(=O)(=O)N=C(c1c(O)c(C3=CCCC3)nn(CCC3CC3)c1=O)N2 |
| 5% | 3% | > 100 µM | 0.01 ×10⁻⁶ cm/s |  |  |  |  |  | CN(c1ccc2c(c1)S(=O)(=O)N=C(c1c(O)c(-c3cccs3)nn(CCC(C)(C)C)c1=O)N2)S(C)(=O)=O |
| 4% | 4% | > 100 µM | 0.15 ×10⁻⁶ cm/s |  |  |  |  |  | CC(C)(C)CCn1nc(CC(C)(C)C)c(O)c(C2=NS(=O)(=O)c3cc(NS(C)(=O)=O)ccc3N2)c1=O |
| 18% | 15% |  |  | 370 ng·h/mL | 2540 ng·h/mL | 1.3 h | 0.15 L/kg | 113 ng/mL | CC(C)CCn1nc(CC2CCCC2)c(O)c(C2=NS(=O)(=O)c3cc(NS(C)(=O)=O)ccc3N2)c1=O |
| 4% |  | > 100 µM |  | 30 ng·h/mL | 1330 ng·h/mL | 6.3 h | 0.18 L/kg | 3.8 ng/mL | CC(C)CCn1nc(-c2cccs2)c(O)c(C2=Nc3ccc(NS(C)(=O)=O)cc3S(=O)(=O)N2)c1=O |
| 17% | 15% | > 100 µM | 0.58 ×10⁻⁶ cm/s | 611 ng·h/mL | 3980 ng·h/mL | 1.5 h | 0.17 L/kg | 294 ng/mL | CC(C)CCn1nc(C(C)(C)C)c(O)c(C2=NS(=O)(=O)c3cc(NS(C)(=O)=O)ccc3N2)c1=O |
| 5% | 4% | > 50 µM | 0.95 ×10⁻⁶ cm/s |  |  |  |  |  | CC(C)(C)CCn1nc(C2CC2)c(O)c(C2=Nc3ccc(NS(C)(=O)=O)cc3S(=O)(=O)N2)c1=O |
| 33% |  | > 100 µM |  | 72 ng·h/mL | 605 ng·h/mL | 6 h | 0.57 L/kg | 11 ng/mL | CC(C)CCn1nc(-c2cccs2)c(O)c(C2=NS(=O)(=O)c3cc(N(C)S(C)(=O)=O)ccc3N2)c1=O |
| 2% | 2% | > 100 µM | 1 ×10⁻⁶ cm/s |  |  |  |  |  | CC(C)=Cc1nn(CCC(C)(C)C)c(=O)c(C2=NS(=O)(=O)c3cc(NS(C)(=O)=O)ccc3N2)c1O |
| 7% | 6% | > 100 µM | 0.7 ×10⁻⁶ cm/s |  |  |  |  |  | CC(C)(C)Cc1nn(CCC2CC2)c(=O)c(C2=Nc3ccc(NS(C)(=O)=O)cc3S(=O)(=O)N2)c1O |
| 18% | 10% | > 100 µM |  | 89 ng·h/mL | 851 ng·h/mL | 6 h | 0.57 L/kg | 13 ng/mL | CC(C)(C)CCn1nc(CC2CCCC2)c(O)c(C2=Nc3ccc(NS(C)(=O)=O)cc3S(=O)(=O)N2)c1=O |
| 9% | 7% | > 100 µM | 0.49 ×10⁻⁶ cm/s |  |  |  |  |  | CC(C)CCn1nc(CC2CC2)c(O)c(C2=NS(=O)(=O)c3cc(NS(C)(=O)=O)ccc3N2)c1=O |
| 36% |  | > 80 µM |  | 3650 ng·h/mL | 10900 ng·h/mL | 2 h | 0.21 L/kg | 673 ng/mL | Cc1ccc(-c2nn(Cc3ccccc3)c(=O)c(C3=Nc4ccccc4S(=O)(=O)N3)c2O)s1 |
| 8% | 6% | > 100 µM | 0.29 ×10⁻⁶ cm/s |  |  |  |  |  | CC(C)CCn1nc(CC(C)(C)C)c(O)c(C2=NS(=O)(=O)c3cc(NS(C)(=O)=O)ccc3N2)c1=O |

From ChEMBL document CHEMBL1145649, “Novel HCV NS5B polymerase inhibitors derived from 4-(1',1'-dioxo-1',4'-dihydro-1'lambda6-benzo[1',2',4']thiadiazin-3'-yl)-5-hydroxy-2H-pyridazin-3-ones: Part 4. Optimization of DMPK properties” (Bioorg Med Chem Lett, 2008)
